Experiment [1] concerns the target D(3) dopamine receptor (Homo sapiens, UniProt P35462).
Experiment [2] has as its target T1, Estrogen receptor (Homo sapiens, UniProt P03372).
T1 sequence (P03372 whole entry): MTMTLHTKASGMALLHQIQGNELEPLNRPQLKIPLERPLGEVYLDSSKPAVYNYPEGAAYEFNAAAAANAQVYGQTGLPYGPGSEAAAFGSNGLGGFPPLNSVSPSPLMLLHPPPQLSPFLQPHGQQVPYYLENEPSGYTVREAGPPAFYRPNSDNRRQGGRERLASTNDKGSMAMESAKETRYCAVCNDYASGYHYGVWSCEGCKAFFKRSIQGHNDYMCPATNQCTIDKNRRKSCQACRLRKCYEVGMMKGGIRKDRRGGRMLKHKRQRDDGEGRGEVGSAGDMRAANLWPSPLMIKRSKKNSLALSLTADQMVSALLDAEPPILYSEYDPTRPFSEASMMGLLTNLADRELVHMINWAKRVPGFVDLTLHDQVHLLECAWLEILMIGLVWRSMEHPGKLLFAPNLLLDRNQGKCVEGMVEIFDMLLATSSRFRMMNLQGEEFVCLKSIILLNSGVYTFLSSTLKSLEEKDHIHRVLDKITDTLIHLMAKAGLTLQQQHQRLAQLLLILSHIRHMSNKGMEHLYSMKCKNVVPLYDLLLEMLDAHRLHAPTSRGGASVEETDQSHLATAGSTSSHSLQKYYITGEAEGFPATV

For experiment [3], the target named is 5-hydroxytryptamine receptor 2B (Homo sapiens, UniProt P41595). It counts as functional, cell-based.
Chain of 5-hydroxytryptamine receptor 2B (P41595 whole entry): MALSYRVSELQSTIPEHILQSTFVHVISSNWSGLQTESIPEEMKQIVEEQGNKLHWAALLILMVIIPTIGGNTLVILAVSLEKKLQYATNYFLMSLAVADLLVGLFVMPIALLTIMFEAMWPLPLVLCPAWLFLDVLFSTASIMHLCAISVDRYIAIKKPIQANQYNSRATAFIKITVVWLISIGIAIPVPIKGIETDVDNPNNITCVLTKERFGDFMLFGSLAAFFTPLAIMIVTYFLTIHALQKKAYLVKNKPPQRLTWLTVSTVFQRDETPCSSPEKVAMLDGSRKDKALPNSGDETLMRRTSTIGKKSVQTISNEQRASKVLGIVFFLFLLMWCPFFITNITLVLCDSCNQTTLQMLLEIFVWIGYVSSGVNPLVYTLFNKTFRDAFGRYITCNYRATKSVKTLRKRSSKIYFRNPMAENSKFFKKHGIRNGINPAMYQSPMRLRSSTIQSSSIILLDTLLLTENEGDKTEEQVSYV
Experiment [4] deals with Vascular endothelial growth factor receptor 2 (Homo sapiens, UniProt P35968). It counts as functional.
Chain of Vascular endothelial growth factor receptor 2 (P35968 whole entry): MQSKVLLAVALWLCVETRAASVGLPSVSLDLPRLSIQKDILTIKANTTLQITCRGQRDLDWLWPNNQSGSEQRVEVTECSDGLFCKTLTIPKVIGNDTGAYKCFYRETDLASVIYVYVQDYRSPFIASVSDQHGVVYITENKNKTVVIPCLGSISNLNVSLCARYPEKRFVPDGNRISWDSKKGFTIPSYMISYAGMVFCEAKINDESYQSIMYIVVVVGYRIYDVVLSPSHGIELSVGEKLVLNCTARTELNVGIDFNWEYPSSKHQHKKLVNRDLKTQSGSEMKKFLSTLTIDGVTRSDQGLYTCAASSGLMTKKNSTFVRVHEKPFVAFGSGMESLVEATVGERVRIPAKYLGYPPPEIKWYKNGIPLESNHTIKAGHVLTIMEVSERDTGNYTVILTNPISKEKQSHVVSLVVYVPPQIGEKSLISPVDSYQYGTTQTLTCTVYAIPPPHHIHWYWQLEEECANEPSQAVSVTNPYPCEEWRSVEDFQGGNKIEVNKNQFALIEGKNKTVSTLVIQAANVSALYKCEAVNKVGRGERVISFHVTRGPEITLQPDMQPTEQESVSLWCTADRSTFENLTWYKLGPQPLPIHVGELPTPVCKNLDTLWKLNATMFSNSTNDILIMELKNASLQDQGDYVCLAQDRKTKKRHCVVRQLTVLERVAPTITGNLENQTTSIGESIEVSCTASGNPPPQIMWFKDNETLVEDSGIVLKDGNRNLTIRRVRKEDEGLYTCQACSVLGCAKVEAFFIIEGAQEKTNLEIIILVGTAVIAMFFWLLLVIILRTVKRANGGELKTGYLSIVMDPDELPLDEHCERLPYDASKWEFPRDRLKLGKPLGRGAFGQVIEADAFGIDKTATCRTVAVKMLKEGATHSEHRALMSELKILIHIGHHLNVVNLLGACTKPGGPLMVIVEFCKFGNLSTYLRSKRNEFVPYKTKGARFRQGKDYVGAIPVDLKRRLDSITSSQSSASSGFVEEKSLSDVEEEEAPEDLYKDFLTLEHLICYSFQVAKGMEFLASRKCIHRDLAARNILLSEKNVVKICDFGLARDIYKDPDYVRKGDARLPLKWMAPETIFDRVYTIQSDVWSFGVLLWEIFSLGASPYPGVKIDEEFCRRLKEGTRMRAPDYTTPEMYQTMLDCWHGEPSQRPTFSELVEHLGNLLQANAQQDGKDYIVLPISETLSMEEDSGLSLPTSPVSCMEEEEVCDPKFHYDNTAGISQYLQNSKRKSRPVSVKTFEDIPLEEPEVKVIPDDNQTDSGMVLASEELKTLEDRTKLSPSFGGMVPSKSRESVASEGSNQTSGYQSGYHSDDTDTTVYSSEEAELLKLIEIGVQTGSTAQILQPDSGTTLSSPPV
The target in experiment [5] is T2, Amine oxidase [flavin-containing] A (Homo sapiens, UniProt P21397).
T2 sequence (P21397 whole entry): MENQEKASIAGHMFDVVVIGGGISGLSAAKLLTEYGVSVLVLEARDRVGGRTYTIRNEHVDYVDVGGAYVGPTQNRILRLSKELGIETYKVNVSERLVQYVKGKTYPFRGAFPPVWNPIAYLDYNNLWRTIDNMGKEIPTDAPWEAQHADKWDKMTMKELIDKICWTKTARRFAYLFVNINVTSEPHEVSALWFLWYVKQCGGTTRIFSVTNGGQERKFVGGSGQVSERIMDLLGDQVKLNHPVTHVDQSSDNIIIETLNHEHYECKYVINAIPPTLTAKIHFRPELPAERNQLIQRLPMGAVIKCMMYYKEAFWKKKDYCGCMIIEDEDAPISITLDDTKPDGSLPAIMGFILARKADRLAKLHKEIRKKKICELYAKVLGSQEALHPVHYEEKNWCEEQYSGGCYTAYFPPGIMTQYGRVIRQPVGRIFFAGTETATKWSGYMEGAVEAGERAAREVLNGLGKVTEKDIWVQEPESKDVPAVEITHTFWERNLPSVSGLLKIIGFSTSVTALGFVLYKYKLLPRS
It counts as functional.

Experiment [6] deals with Mu-type opioid receptor (Homo sapiens, UniProt P35372).
Chain of Mu-type opioid receptor (P35372 whole entry): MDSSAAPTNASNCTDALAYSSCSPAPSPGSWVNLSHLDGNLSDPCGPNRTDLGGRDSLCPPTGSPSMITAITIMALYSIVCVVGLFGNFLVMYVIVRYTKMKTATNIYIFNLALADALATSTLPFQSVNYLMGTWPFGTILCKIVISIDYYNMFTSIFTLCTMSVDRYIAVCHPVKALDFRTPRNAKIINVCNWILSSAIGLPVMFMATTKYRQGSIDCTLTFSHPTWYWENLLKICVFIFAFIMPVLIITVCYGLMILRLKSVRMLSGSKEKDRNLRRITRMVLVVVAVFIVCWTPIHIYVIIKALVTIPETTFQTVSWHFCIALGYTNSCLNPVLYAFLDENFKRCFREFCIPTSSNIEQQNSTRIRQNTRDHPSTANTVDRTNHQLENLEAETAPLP
In experiment [7] the target is cGMP-inhibited 3',5'-cyclic phosphodiesterase 3A (Homo sapiens, UniProt Q14432). It counts as functional.
Chain of cGMP-inhibited 3',5'-cyclic phosphodiesterase 3A (Q14432 whole entry): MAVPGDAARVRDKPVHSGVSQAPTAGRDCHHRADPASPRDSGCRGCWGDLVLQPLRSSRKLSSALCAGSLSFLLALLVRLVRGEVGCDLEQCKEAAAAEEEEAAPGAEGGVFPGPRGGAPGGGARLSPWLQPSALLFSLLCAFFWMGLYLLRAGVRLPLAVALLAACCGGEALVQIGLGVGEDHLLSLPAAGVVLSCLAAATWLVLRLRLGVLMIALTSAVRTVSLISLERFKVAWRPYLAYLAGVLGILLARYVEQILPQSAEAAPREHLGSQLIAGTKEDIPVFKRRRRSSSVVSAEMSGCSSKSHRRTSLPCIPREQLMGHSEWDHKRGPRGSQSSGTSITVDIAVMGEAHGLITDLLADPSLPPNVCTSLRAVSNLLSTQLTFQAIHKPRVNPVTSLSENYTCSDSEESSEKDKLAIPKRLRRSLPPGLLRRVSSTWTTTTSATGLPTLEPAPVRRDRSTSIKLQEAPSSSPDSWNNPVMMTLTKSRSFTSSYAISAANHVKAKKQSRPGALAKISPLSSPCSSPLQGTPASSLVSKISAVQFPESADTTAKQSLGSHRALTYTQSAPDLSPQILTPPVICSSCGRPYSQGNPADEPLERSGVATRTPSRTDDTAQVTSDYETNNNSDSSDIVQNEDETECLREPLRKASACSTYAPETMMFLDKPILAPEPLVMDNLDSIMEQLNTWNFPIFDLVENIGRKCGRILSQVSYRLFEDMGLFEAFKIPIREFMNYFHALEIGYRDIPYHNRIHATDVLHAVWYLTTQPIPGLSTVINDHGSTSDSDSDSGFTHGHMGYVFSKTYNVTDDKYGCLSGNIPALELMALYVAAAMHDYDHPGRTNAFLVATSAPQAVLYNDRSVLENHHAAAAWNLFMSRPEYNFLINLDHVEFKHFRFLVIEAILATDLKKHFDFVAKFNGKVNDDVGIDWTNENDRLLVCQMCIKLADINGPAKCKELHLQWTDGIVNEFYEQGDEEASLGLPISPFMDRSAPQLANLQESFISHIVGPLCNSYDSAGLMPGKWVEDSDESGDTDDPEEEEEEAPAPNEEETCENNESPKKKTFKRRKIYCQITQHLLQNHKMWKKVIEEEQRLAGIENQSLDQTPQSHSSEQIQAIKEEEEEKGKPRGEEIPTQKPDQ
The target of experiment [8] is 3',5'-cyclic-AMP phosphodiesterase 4A (Homo sapiens, UniProt P27815). It counts as functional.
Chain of 3',5'-cyclic-AMP phosphodiesterase 4A (P27815 whole entry): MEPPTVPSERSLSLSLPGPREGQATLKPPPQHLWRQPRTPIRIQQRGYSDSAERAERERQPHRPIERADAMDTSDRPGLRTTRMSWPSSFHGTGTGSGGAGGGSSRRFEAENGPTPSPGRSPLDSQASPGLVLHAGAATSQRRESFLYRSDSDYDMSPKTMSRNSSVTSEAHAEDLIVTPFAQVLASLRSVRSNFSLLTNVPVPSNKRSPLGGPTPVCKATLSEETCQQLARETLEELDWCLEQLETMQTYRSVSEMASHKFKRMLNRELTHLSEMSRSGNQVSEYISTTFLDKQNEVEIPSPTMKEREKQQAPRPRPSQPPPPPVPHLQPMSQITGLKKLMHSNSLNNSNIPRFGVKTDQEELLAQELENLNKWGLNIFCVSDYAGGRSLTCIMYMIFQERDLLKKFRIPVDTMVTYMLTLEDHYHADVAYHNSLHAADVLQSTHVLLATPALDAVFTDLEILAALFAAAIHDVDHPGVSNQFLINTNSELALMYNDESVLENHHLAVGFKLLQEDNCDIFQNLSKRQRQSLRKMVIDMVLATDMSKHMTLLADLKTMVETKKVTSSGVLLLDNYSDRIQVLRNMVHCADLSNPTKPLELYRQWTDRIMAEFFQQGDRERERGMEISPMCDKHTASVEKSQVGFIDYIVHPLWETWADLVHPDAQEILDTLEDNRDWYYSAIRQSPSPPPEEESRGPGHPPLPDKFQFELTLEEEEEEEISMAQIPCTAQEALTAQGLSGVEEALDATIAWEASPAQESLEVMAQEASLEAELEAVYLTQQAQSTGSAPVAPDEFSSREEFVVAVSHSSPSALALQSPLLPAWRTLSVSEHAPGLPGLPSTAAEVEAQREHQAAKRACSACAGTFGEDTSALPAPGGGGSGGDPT
In experiment [9] the target is T3, Progesterone receptor (Homo sapiens, UniProt P06401).
T3 sequence (P06401 whole entry): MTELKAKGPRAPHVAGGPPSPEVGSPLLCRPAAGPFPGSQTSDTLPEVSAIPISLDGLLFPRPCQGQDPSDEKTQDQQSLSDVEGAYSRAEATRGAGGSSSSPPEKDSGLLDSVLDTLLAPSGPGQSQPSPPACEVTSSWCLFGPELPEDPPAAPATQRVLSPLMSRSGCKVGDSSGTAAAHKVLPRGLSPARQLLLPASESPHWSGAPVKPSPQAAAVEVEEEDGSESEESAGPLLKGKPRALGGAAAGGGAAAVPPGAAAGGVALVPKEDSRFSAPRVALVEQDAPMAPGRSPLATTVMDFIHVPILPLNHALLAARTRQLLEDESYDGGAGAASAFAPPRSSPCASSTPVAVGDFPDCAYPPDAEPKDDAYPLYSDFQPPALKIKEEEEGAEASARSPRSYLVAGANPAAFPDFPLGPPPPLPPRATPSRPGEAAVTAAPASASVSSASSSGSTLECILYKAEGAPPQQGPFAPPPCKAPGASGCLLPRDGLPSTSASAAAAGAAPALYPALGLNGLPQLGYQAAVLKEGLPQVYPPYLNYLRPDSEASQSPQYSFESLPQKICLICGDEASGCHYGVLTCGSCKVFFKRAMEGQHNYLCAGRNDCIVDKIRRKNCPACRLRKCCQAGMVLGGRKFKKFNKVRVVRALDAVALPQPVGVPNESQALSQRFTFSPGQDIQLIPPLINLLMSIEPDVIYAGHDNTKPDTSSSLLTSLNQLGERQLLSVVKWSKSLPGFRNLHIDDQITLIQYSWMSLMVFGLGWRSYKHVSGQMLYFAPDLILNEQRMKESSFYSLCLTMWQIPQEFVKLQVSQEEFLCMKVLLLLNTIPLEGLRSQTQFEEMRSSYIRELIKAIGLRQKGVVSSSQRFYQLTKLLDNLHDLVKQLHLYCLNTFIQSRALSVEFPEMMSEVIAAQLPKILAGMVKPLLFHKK

The target in experiment [10] is T1, Estrogen receptor. It counts as functional.
In experiment [11] the target is T1, Estrogen receptor. It counts as functional. This is another data set of the same source.
Also: assay procedure not described here.

Chain of D(3) dopamine receptor (P35462 whole entry): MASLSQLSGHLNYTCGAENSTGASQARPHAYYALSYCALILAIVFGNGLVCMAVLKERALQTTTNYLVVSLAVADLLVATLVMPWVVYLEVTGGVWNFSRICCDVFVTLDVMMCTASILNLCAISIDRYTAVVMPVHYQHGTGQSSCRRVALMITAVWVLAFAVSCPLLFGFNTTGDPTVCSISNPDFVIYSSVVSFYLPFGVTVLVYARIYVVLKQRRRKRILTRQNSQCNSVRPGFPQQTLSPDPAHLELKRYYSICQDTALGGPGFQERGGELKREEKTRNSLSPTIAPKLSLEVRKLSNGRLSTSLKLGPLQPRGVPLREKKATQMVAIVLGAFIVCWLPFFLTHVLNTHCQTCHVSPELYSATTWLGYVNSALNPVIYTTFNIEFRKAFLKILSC

As for `CCN(CC)CCCC(C)Nc1c2ccc(Cl)cc2nc2ccc(OC)cc12` (stereo unspecified) [QUINACRINE], the AC50 in experiment [1] is 7.05 µM; in experiment [2], over 30 µM; in experiment [3], over 30 µM; in [4], over 30 µM; in [5] it was over 30 µM; in experiment [6], 5.86 µM. Besides, the results for the AC50 in experiment [7], in experiment [8] and in [9] were over 30 µM, over 10 µM and over 10 µM, respectively.

`CCOC(=O)[C@@H](N)Cc1ccc(-c2cc(O[C@H](c3ccc(Cl)cc3-n3ccc(C)n3)C(F)(F)F)nc(N)n2)cc1` [TELOTRISTAT ETHYL]: the AC50 in [10] and in [11] was over 30 µM in each case.

By AC50 is commonly meant the midpoint of the concentration-response curve, whichever way the signal moves. Lower therefore signals greater potency.

The values are drawn from ChEMBL document CHEMBL5291721, “A preclinical secondary pharmacology resource illuminates target-adverse drug reaction associations of marketed drugs” (Nat Commun, 2023).
